Like-named read-outs stand apart in the source and are kept apart here.
Tests used:
L929 cells = test system: L929 cells; design: method as in Simões-Silva et al. (2019); settings: ± S.D., ref Simões-Silva et al. (2019), read-out: Toxicity against L929 cells LC50; cited from earlier work
[1] = test system: intracellular forms of Trypanosoma cruzi (Tulahuen strain, DTU VI); settings: read-out: Activity against intracellular forms of the parasite EC50, ± S.D., ref Simões-Silva et al. (2019); cited from earlier work
[2] = test system: bloodstream trypomastigote forms of Trypanosoma cruzi (Y strain, DTU II); settings: ref Simões-Silva et al. (2019), cited from earlier work; for EC50: read-out: Activity against bloodstream trypomastigotes EC50; for EC50 / EC90: Y strain; for EC90: read-out: Activity against bloodstream trypomastigotes EC90
in vitro = type: cell-based; settings: mouse
Protocol: L929 culture cells were seeded in 96-well plates with 4 × 10^3 cells per well and sustained in RPMI medium supplemented with 10% FBS. The compounds were added (0–400 μM, serially diluted 1:2) and the non-infected cultures incubated for 96 h at 37°C/5% CO2. Then, their viability was assessed by Alamar Blue reagent following the manufacturer's specifications. Controls were carried out with parasites kept under the same conditions in the absence of the compounds.

[3] = test system: intracellular forms of Trypanosoma cruzi (Tulahuen strain, DTU VI); experiment: In vitro activity against intracellular forms of T. cruzi (Tulahuen strain, β-galactosidase) in L929 cells; type: cell-based; settings: for Selectivity index (IC50/EC50): SI = LC50 (L929) / EC50 (intracellular forms); for EC90 / EC50: Tulahuen strain in L929 cells, 96 h, 95% confidence interval in brackets; for EC90: read-out: Activity against intracellular forms of the parasite EC90; for EC50: read-out: Activity against intracellular forms of the parasite EC50
Protocol: L929 cells were infected with trypomastigotes obtained from the supernatant of infected cultures. After 2 h of interaction (10 parasites per host cell), the parasites which were not internalized were removed by replacing the RPMI medium. After 48 h of incubation, the compounds were added to the infected cultures (0–10 μM, serially diluted 1:2) and the cultures incubated for 96 h at 37°C/5% CO2. BZ and DMSO (solvent used for the compounds) were run in parallel as positive and negative controls, respectively. After the elapsed time, 50 μL per well of chlorophenol red-β-D-galactopyranoside was added and a reading was done in a spectrophotometer at 570 nm (Romanha et al., [2010]).

[4] = test system: bloodstream trypomastigote forms of Trypanosoma cruzi (Y strain, DTU II); experiment: In vitro activity against bloodstream trypomastigotes (Y strain); type: cell-based; settings: 95% confidence interval in brackets
Protocol: Trypomastigote forms were incubated in 96-well microplates. Briefly, 100 μL of a BT suspension (in RPMI medium + 5% FBS) containing 10^7 parasites mL^−1 was added to the same volume of each compound diluted in RPMI + 5% FBS at twice of the desired final concentration (0–50 μM, serially diluted 1:2). After 2 and 24 h at 37°C, the number of live parasites was determined by light microscope quantification using a Neubauer chamber. Controls were carried out with parasites kept under the same conditions in the absence of the compounds. BZ was run in parallel.

[5] = Trypanosoma cruzi, TULAHUEN, L929, 96 h

Q: Which results are given for `O=C(Cn1ccnc1[N+](=O)[O-])NCc1ccccc1` [BZ, benznidazole]?
A: CC50 (L929 cells): > 400 µM; EC50 [1]: 4.1 ± 1.3 µM; activity against bloodstream trypomastigotes in words ([2]; after 2 h of drug exposure): completely inactive; EC50 ([2]; 2 h): > 50 µM; EC50 ([2]; 24 h, ± S.D.): 14.4 ± 3.4 µM; EC90 ([2]; 2 h): > 50 µM; EC90 ([2]; 24 h, ± S.D.): 22.8 ± 7.8 µM

Q: For `Cc1ccc(CC(=O)c2ccc(OCCCCn3ccnc3)c(Br)c2)cc1Nc1nccc(-c2cccnc2)n1` [LS2/89], which CC50 at 96 h (in vitro) is on record?
A: The CC50 at 96 h was 12.3 µM.

Q: And the “Selectivity index (IC50/EC50)” value [3]?
A: Its value is 64.74.

Q: What about the EC90 [3, 5] of the same compound?
A: The EC90 was 1.6 µM.

Q: What about the EC50 ([3]; Trypanosoma cruzi) of the same compound?
A: Its EC50 is 0.19 µM.

Q: What about the EC90 [3] of the same compound?
A: Its EC90 is 1.68 µM.

Q: And the EC90 ([4]; 24 h)?
A: Its EC90 is 4.93 µM.

Q: What about the EC50 ([4]; Trypanosoma cruzi, 2 h) of the same compound?
A: Its EC50 is 4.83 µM.

Q: What about the EC90 ([4]; Trypanosoma cruzi, 2 h) of the same compound?
A: Its EC90 is 8.12 µM.

Q: And the EC50 ([4]; Trypanosoma cruzi, 24 h)?
A: The EC50 was 2.67 µM.

Q: And the EC90 ([4]; Trypanosoma cruzi, 24 h)?
A: The EC90 was 4.9 µM.

Q: What does the source list for `Cc1ccc(CC(=O)c2cccc(OCCCCn3ccnc3)c2)cc1Nc1nccc(-c2cccnc2)n1` [LS2/97]?
A: CC50 at 96 h (in vitro): 19.3 µM; Selectivity index (IC50/EC50) [3]: 14.81; EC90 [3, 5]: > 10 µM; EC50 ([3]; Trypanosoma cruzi): 1.3 µM; EC50 ([4]; Trypanosoma cruzi, 2 h): 7.84 µM; EC90 ([4]; Trypanosoma cruzi, 2 h): 11.4 µM; EC50 ([4]; Trypanosoma cruzi, 24 h): 4.72 µM; EC90 ([4]; Trypanosoma cruzi, 24 h): 8.52 µM

Q: For `Cc1ccc(CC(=O)c2ccccc2OCCCCn2ccnc2)cc1Nc1nccc(-c2cccnc2)n1` [LS2/98], which CC50 at 96 h (in vitro) is on record?
A: The CC50 at 96 h was 12.2 µM.

Q: And the “Selectivity index (IC50/EC50)” value [3]?
A: The value was 3.93.

Q: And the EC90 [3, 5]?
A: The EC90 was over 10 µM.

Q: What about the EC50 ([3]; Trypanosoma cruzi) of the same compound?
A: The EC50 was 3.31 µM.

Q: And the EC50 ([4]; Trypanosoma cruzi, 2 h)?
A: Its EC50 is over 50 µM.

Q: And the EC90 ([4]; Trypanosoma cruzi, 2 h)?
A: The EC90 was over 50 µM.

Q: What about the EC50 ([4]; Trypanosoma cruzi, 24 h) of the same compound?
A: Its EC50 is 9.59 µM.

Q: What about the EC90 ([4]; Trypanosoma cruzi, 24 h) of the same compound?
A: Its EC90 is 22 µM.

Q: What does the source list for `COc1ccc(C(=O)Cc2ccc(C)c(Nc3nccc(-c4cccnc4)n3)c2)cc1OCCCCn1ccnc1` [LS2/116]?
A: CC50 at 96 h (in vitro): 5.13 µM; Selectivity index (IC50/EC50) [3]: 3.49; EC90 [3, 5]: > 10 µM; EC50 ([3]; Trypanosoma cruzi): 1.47 µM; EC50 ([4]; Trypanosoma cruzi, 2 h): 12 µM; EC90 ([4]; Trypanosoma cruzi, 2 h): 28.1 µM; EC50 ([4]; Trypanosoma cruzi, 24 h): 3.89 µM; EC90 ([4]; Trypanosoma cruzi, 24 h): 7.09 µM

Q: With `COc1cc(C(=O)Cc2ccc(C)c(Nc3nccc(-c4cccnc4)n3)c2)ccc1OCCCCn1ccnc1` [LS2/122] as the compound, how does the CC50 at 96 h (in vitro) read?
A: The CC50 at 96 h was 5.44 µM.

Q: And the “Selectivity index (IC50/EC50)” value [3]?
A: Its value is 1.22.

Q: And the EC90 [3, 5]?
A: The EC90 was over 10 µM.

Q: And the EC50 ([3]; Trypanosoma cruzi)?
A: The EC50 was 4.47 µM.

Q: What about the EC50 ([4]; Trypanosoma cruzi, 2 h) of the same compound?
A: The EC50 was 11.1 µM.

Q: What about the EC90 ([4]; Trypanosoma cruzi, 2 h) of the same compound?
A: Its EC90 is 22.1 µM.

Q: And the EC50 ([4]; Trypanosoma cruzi, 24 h)?
A: Its EC50 is 3.27 µM.

Q: And the EC90 ([4]; Trypanosoma cruzi, 24 h)?
A: The EC90 was 5.34 µM.

Q: For `Cc1ccc(CC(=O)c2ccc(Br)cc2OCCCCn2ccnc2)cc1Nc1nccc(-c2cccnc2)n1` [LS2/128], which CC50 at 96 h (in vitro) is on record?
A: Its CC50 at 96 h is 17.9 µM.

Q: What about the “Selectivity index (IC50/EC50)” value [3] of the same compound?
A: Its value is 4.22.

Q: And the EC90 [3, 5]?
A: Its EC90 is over 10 µM.

Q: And the EC50 ([3]; Trypanosoma cruzi)?
A: The EC50 was 4.25 µM.

Q: And the EC50 ([4]; Trypanosoma cruzi, 2 h)?
A: Its EC50 is 5.93 µM.

Q: What about the EC90 ([4]; Trypanosoma cruzi, 2 h) of the same compound?
A: The EC90 was 8.93 µM.

Q: And the EC50 ([4]; Trypanosoma cruzi, 24 h)?
A: Its EC50 is 4.12 µM.

Q: What about the EC90 ([4]; Trypanosoma cruzi, 24 h) of the same compound?
A: Its EC90 is 5.69 µM.

Q: Which “Selectivity index (IC50/EC50)” value [3] does the source give for `Cc1ccc(CC(=O)c2ccc([N+](=O)[O-])c(OCCCCn3ccnc3)c2)cc1Nc1nccc(-c2cccnc2)n1` [LS2/130] here?
A: Its value is 4.84.

Q: And the EC90 [3, 5]?
A: Its EC90 is 9.44 µM.

Q: And the EC50 ([3]; Trypanosoma cruzi)?
A: Its EC50 is 1.05 µM.

Q: And the EC50 ([4]; Trypanosoma cruzi, 2 h)?
A: The EC50 was 5.69 µM.

Q: And the EC90 ([4]; Trypanosoma cruzi, 2 h)?
A: The EC90 was 7.31 µM.

Q: What about the EC50 ([4]; Trypanosoma cruzi, 24 h) of the same compound?
A: Its EC50 is 3.4 µM.

Q: What about the EC90 ([4]; Trypanosoma cruzi, 24 h) of the same compound?
A: Its EC90 is 4.8 µM.
